From patent US20250340538A1, “IMIDAZOLONE DERIVATIVES AS INHIBITORS OF PROTEIN KINASES IN PARTICULAR DYRK1A, CLK1 AND/OR CLK4” (PERHA PHARMACEUTICALS, priority 2021, published 2025)
Where two headings read alike, the source gives them in different places.

Experiments:
Assay type in all cases: biochemical
DYRK2 = biological target: T1, DYRK2 (Homo sapiens, UniProt Q92630); experiment: Radiometric protein kinase assay (33PanQinase Activity Assay), DYRK2; conditions: read-out: IC50 on DYRK2 (most potent DYRK2 inhibitors)
T1 construct: GST-fusion or His-tag (not specified per kinase); purchased ProQinase GmbH; host or cells: Sf9 insect cells or E. coli (not specified per kinase)
T1 sequence (Q92630 1-601): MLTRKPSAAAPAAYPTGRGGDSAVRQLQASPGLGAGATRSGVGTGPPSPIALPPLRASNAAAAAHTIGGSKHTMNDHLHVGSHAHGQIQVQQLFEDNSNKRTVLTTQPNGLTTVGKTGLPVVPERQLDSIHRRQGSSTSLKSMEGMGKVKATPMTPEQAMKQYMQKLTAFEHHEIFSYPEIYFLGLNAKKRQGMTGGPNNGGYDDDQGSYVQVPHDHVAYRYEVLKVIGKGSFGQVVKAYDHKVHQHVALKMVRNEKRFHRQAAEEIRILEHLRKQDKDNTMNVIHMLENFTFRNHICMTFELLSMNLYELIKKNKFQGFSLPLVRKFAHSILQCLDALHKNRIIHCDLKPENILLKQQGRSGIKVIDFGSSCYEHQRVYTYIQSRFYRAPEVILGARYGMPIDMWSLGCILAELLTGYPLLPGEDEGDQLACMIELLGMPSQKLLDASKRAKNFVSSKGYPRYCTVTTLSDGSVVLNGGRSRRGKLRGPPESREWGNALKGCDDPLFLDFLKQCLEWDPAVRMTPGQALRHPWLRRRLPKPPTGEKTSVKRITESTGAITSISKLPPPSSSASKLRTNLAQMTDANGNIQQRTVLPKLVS
Method: (§1) Assays were performed by ProQinase GmbH (Engesserstr. 4, D-79108 Freiburg, Germany. www.proqinase.com). The IC50 profile of all compounds was determined using 12 protein kinases (CDK2/cyclin E, CK1ε, CLK1, 2, 3, 4, DYRK1A, 1B, 2, 3, 4, GSK3β).
(§2) The compounds were provided as […] in 100% DMSO. Prior to testing, the 1 μM stock solutions were subjected to a serial, semi-logarithmic dilution using 100% DMSO as a solvent. […] In the process, 90 μl H2O were added to each well of each compound dilution plate. To minimize potential precipitation, the H2O was added to each plate only a few minutes before the transfer of the compound solutions into the assay plates. The plate was shaken thoroughly, resulting in a compound dilution plate/10% DMSO.
(§3) For the assays (see below), 5 μL solution from each well of the compound dilution plates/10% DMSO were transferred into the assay plates. The final volume of the assay was 50 μL. All compounds were tested at 10 final assay concentrations in the range from 10 μM to 30 nM. The final DMSO concentration in the reaction cocktails was 1% in all cases.
(§4) All protein kinases provided by ProQinase were expressed in Sf9 insect cells or in E. coli as recombinant GST-fusion proteins or His-tagged proteins, either as full-length or enzymatically active fragments. All kinases were produced from human cDNAs and purified by either GSH-affinity chromatography or immobilized metal. Affinity tags were removed from a number of kinases during purification. The purity of the protein kinases was examined by SDS-PAGE/Coomassie staining, the identity was checked by mass spectroscopy.
(§5) A radiometric protein kinase assay (33PanQinase® Activity Assay) was used for measuring the kinase activity of the 12 protein kinases. All kinase assays were performed in 96-well FlashPlates™ from PerkinElmer (Boston, MA, USA) in a 50 μL reaction volume. The reaction cocktail was pipetted in four steps in the following order: • 25 μL of assay buffer (standard buffer/[γ-^33P]-ATP), • 10 μL of ATP solution (in H2O), • 5 μL of test compound (in 10% DMSO), • 10 μL of enzyme/substrate mixture.
(§6) The reaction cocktails were incubated at 30° C. for 60 minutes. The reaction was stopped with 50 μL of 2% (v/v) H3PO4, plates were aspirated and washed two times with 200 μL 0.9% (w/v) NaCl. Incorporation of ^33Pi was determined with a microplate scintillation counter (Microbeta, Wallac). The IC50 values for all compounds were calculated from the dose response curves
(§7) As a parameter for assay quality, the Z′-factor (Zhang et al., J. Biomol. Screen. 2: 67-73, 1999) for the low and high controls of each assay plate (n=8) was used. ProQinase's criterion for repetition of an assay plate is a Z′-factor below 0.4 (Iversen et al., J. Biomol. Screen. 3: 247-252, 2006).

CLK1 = biological target: T2, CLK1 (Homo sapiens, UniProt P49759); experiment: Radiometric protein kinase assay (33PanQinase Activity Assay), CLK1
T2 construct: GST-fusion or His-tag (not specified per kinase); purchased ProQinase GmbH; host or cells: Sf9 insect cells or E. coli (not specified per kinase)
How it was run: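 Human kinase (Sf9- or E. coli-expressed, tagged, purified) + substrate + [γ-33P]-ATP; cpd 10 μM→30 nM, 10 pts, 1% DMSO; 30 °C, 60 min; H3PO4 stop; scintillation count; IC50 from curve.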

DYRK4 = biological target: T3, DYRK4 (Homo sapiens, UniProt Q9NR20); experiment: Radiometric protein kinase assay (33PanQinase Activity Assay), DYRK4; conditions: read-out: IC50 on DYRK4 (most potent DYRK4 inhibitors)
T3 construct: GST-fusion or His-tag (not specified per kinase); purchased ProQinase GmbH; host or cells: Sf9 insect cells or E. coli (not specified per kinase)
T3 sequence (Q9NR20 1-520): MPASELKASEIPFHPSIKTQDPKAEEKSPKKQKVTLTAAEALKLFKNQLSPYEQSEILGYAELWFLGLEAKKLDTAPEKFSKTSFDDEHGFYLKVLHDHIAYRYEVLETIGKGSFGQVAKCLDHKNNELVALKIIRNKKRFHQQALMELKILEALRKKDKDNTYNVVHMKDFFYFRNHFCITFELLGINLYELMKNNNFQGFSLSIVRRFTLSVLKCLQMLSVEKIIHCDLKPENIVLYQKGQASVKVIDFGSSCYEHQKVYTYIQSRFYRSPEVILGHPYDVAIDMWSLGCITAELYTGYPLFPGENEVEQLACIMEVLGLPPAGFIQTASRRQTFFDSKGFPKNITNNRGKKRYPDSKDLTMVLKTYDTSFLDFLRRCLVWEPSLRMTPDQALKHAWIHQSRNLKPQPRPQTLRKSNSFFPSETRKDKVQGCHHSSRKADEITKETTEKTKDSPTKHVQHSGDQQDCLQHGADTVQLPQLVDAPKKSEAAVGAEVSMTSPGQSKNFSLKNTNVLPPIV
Method: as §1, §2
as §3, with “cases. […]” for “cases.”
The reaction cocktails were incubated at 30° C. for 60 minutes. […] Incorporation of ^33Pi was determined with a microplate scintillation counter (Microbeta, Wallac). The IC50 values for all compounds were calculated from the dose response curves […]

CLK4 = biological target: T4, CLK4 (Homo sapiens, UniProt Q9HAZ1); experiment: Radiometric protein kinase assay (33PanQinase Activity Assay), CLK4; conditions: read-out: IC50 on CLK4 (most potent CLK4 inhibitors)
T4 construct: GST-fusion or His-tag (not specified per kinase); purchased ProQinase GmbH; host or cells: Sf9 insect cells or E. coli (not specified per kinase)
Method: as §1, §2, §3, §4, §5, §6, §7

DYRK1A = biological target: T5, DYRK1A (Homo sapiens, UniProt Q13627); experiment: Radiometric protein kinase assay (33PanQinase Activity Assay), DYRK1A; conditions: for Selectivity Class DYRK1A vs. CLK1: ratio of IC50 on CLK1 over IC50 on DYRK1A; for Selectivity Class DYRK1A vs. DYRK1B: ratio of IC50 on DYRK1B over IC50 on DYRK1A
T5 construct: GST-fusion or His-tag (not specified per kinase); purchased ProQinase GmbH; host or cells: Sf9 insect cells or E. coli (not specified per kinase)
How it was run: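 Recombinant human kinase, expressed in Sf9 or E. coli, in a radiometric [γ-33P]-ATP assay at 30 °C for 60 min. Compounds tested at 10 concentrations from 10 μM to 30 nM, 1% DMSO final. 33Pi incorporation measured by scintillation counting; IC50 from dose-response curves.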

CLK2 = biological target: T6, CLK2 (Homo sapiens, UniProt P49760); experiment: Radiometric protein kinase assay (33PanQinase Activity Assay), CLK2; conditions: read-out: IC50 on CLK2 (most potent CLK2 inhibitors)
T6 construct: GST-fusion or His-tag (not specified per kinase); purchased ProQinase GmbH; host or cells: Sf9 insect cells or E. coli (not specified per kinase)
Method: as §1, §2, §3, §4, §5, §6, §7

CLK3 = biological target: T7, CLK3 (Homo sapiens, UniProt P49761); experiment: Radiometric protein kinase assay (33PanQinase Activity Assay), CLK3; conditions: read-out: IC50 on CLK3 (most potent CLK3 inhibitors)
T7 construct: GST-fusion or His-tag (not specified per kinase); purchased ProQinase GmbH; host or cells: Sf9 insect cells or E. coli (not specified per kinase)
Method: as §1, §2, §3, §4, §5, §6, §7

DYRK1B = biological target: T8, DYRK1B (Homo sapiens, UniProt Q9Y463); experiment: Radiometric protein kinase assay (33PanQinase Activity Assay), DYRK1B; conditions: read-out: IC50 on DYRK1B (most potent DYRK1B inhibitors)
T8 construct: GST-fusion or His-tag (not specified per kinase); purchased ProQinase GmbH; host or cells: Sf9 insect cells or E. coli (not specified per kinase)
Method: as §1, §2, §3, §4, §5, §6, §7

DYRK3 = biological target: T9, DYRK3 (Homo sapiens, UniProt O43781); experiment: Radiometric protein kinase assay (33PanQinase Activity Assay), DYRK3; conditions: read-out: IC50 on DYRK3 (most potent DYRK3 inhibitors)
T9 construct: GST-fusion or His-tag (not specified per kinase); purchased ProQinase GmbH; host or cells: Sf9 insect cells or E. coli (not specified per kinase)
T9 sequence (O43781 1-588): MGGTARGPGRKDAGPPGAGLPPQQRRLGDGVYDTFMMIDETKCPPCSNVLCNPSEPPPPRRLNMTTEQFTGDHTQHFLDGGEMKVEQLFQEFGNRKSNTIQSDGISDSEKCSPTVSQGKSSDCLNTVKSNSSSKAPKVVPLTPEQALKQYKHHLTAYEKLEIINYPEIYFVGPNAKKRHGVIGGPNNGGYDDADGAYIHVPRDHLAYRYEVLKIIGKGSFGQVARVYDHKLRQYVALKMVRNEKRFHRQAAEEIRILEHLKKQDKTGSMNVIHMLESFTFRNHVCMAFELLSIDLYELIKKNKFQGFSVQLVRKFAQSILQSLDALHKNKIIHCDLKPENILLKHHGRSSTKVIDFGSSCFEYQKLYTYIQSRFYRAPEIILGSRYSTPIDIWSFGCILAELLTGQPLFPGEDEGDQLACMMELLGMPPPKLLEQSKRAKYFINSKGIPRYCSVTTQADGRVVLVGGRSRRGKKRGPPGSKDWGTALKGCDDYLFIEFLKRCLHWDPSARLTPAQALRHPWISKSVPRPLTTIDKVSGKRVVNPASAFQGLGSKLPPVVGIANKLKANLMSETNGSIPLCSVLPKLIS
Method: as §1, §2, §3, §4, §5, §6, §7

[1] = IC50 class A to E, read-out: Potency Class CLK1
[2] = class by IC50 on CLK1, from dose-response curves, read-out: Potency Class CLK1
[3] = IC50 class A to E, read-out: Potency Class DYRK1A
[4] = class by IC50 on DYRK1A, from dose-response curves, read-out: Potency Class DYRK1A
[5] = read-out: IC50 on DYRK1A (most potent DYRK1A inhibitors)

T2 sequence (P49759 whole entry, the tested form may be a part): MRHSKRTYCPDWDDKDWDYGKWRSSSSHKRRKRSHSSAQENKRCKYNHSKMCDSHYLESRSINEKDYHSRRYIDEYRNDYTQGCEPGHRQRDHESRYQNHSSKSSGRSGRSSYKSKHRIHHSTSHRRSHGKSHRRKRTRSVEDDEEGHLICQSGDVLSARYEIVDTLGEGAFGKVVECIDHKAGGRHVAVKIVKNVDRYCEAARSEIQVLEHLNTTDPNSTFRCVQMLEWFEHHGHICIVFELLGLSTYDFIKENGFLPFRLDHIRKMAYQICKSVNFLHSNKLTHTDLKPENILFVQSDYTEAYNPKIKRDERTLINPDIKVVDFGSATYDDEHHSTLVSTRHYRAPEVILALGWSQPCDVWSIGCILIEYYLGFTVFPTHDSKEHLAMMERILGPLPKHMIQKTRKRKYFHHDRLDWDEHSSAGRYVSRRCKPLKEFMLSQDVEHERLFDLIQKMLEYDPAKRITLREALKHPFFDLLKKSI
T4 sequence (Q9HAZ1 whole entry, the tested form may be a part): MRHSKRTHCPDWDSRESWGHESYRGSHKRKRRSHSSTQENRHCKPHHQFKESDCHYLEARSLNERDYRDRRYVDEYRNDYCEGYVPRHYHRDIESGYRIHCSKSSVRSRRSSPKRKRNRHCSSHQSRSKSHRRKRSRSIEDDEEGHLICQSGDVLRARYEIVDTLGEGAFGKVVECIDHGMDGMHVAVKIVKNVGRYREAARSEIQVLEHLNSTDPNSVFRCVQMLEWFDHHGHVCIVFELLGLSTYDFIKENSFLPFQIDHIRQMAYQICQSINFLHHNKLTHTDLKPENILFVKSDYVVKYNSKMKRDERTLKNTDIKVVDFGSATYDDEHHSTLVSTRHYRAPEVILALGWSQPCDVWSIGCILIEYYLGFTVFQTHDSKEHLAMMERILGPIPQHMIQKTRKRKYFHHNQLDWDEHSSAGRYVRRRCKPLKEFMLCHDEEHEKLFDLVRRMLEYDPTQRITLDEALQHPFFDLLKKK
T7 sequence (P49761 whole entry, the tested form may be a part): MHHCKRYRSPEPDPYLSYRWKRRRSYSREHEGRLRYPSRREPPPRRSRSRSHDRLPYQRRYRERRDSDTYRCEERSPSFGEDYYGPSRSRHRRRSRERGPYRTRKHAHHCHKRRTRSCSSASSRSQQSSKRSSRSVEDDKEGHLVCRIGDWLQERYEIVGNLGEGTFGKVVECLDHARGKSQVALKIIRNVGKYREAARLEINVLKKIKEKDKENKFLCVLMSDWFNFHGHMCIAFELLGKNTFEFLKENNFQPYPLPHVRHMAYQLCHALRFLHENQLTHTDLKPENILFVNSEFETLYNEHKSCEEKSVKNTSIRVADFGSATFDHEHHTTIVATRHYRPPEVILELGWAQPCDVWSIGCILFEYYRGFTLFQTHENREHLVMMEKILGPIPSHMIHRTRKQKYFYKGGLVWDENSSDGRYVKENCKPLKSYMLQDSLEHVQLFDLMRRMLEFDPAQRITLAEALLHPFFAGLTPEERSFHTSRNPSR
T8 sequence (Q9Y463 whole entry, the tested form may be a part): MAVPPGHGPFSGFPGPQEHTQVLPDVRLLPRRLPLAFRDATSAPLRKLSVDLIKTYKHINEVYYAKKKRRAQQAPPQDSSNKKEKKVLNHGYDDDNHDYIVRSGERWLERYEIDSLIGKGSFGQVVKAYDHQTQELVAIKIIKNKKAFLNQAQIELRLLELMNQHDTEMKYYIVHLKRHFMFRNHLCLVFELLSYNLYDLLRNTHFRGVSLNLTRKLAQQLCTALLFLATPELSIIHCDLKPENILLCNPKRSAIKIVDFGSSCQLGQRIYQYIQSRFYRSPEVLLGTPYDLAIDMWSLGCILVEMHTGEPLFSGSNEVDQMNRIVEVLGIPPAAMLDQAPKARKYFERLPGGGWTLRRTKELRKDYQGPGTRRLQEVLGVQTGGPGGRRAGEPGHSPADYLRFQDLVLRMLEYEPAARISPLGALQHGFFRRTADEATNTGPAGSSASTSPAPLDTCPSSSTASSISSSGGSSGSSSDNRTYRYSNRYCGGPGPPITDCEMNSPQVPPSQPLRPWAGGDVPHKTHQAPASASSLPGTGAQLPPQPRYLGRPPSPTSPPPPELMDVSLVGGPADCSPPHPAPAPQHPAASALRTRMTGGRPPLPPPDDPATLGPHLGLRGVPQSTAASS
T6 sequence (P49760 whole entry, the tested form may be a part): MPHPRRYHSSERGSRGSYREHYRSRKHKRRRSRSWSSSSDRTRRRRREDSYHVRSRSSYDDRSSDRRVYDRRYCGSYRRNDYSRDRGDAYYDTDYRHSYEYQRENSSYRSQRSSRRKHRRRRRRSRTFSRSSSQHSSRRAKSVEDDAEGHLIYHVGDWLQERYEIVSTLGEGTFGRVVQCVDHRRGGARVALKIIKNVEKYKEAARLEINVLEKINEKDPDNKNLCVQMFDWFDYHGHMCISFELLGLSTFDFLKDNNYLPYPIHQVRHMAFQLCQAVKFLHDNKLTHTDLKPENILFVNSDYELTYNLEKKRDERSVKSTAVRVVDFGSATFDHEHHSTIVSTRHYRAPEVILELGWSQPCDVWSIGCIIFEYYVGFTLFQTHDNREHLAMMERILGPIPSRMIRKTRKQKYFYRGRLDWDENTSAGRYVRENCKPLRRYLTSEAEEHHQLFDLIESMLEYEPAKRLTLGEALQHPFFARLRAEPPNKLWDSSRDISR

IC50 (DYRK2) | IC50 (CLK1; [1]) | IC50 (CLK1; [2]) | IC50 (DYRK4) | IC50 (CLK4) | IC50 (DYRK1A; [3]) | IC50 (DYRK1A; [4]) | Selectivity Class DYRK1A vs. DYRK1B (DYRK1A) | IC50 (DYRK1A; [5]) | IC50 (CLK2) | IC50 (CLK1; read-out: IC50 on CLK1 (most potent CLK1 inhibitors)) | IC50 (CLK3) | IC50 (DYRK1B) | IC50 (DYRK3) | SMILES | Selectivity Class DYRK1A vs. CLK1 (DYRK1A)
≤ 250 nM | > 50 nM | > 50 nM | ≤ 300 nM | ≤ 10 nM | 5 to 10 nM | 5 to 10 nM | II (ratio between 2 and 10 fold) | ≤ 10 nM |  |  |  |  |  | O=C1NC(NC23CC4CC(CC2C4)C3)=N/C1=C\c1ccc2nccnc2c1 [Compound 16, (4Z)-2-(3-noradamantylamino)-4-(quinoxalin-6-ylmethylene)-1H-imidazol-5-one] | I (ratio of IC50 on CLK1 or DYRK1B over IC50 on DYRK1A ≥10 fold (most DYRK1A-selective compounds))
 | 5 to 10 nM | 5 to 10 nM |  | ≤ 10 nM | ≤ 5 nM | < 5 nM | II (ratio between 2 and 10 fold) | ≤ 10 nM | ≤ 100 nM | ≤ 10 nM | ≤ 500 nM | ≤ 10 nM | ≤ 250 nM | O=C1NC(NC23CC4CC(CC(C4)C2)C3)=N/C1=C\c1ccc2ncccc2n1 [Compound 70, (4Z)-2-(1-adamantylamino)-4-(1,5-naphthyridin-2-ylmethylene)-1H-imidazol-5-one] | II (ratio between 2 and 10 fold)
